Test results: patent US20090269330A1, “FATTY ACID TRIGLYCERIDES FOR MAKING BIOCOMPATIBLE COATINGS” (ZISCOAT NV, priority 2006, published 2009)

Assay: In vitro drug release from enzymatically transesterified triglyceride coating on stainless steel samples
Assay type: physicochemical
Conditions: 5 weight % paclitaxel in enzymatically transesterified triglyceride coating; PBS with 0.02% (w/v) sodium azide, 37° C.; after 5 weeks; HPLC
Procedure: Transesterified triglyceride mixtures were made using the following procedure: • 30 weight % tristearin, 30 weight % triolein, 40 weight % trilinolein are put in a vacuum furnace at 70° C. during 1 hour • the mixture is stirred during 30 minutes at 75° C. • 1% of 1,3 specific lipase (lipozyme) is added to the mixture at 75° C. during 1 hour. • Filtration over Whatman no. 4 filter. The slip melting point of the resulting mixture was 60° C.
5 weight % of paclitaxel (taxol) and acetone were added to this triglyceride mixture, heated to 50° C. and stirred until homogeneous. Stainless steel samples were dipped into the solution followed by air-drying. The samples were put into 5 ml of release medium (PBS with 0.02% (w/v) sodium azide) at 37° C. and continuously shaken with a rocking table. At different time points, samples were put in a new vial with fresh release medium. The medium of the previous vials were analyzed with HPLC to determine the concentration of paclitaxel that was released. After the test, the remaining paclitaxel was liberated from the coating on the stainless steel samples by dissolving the coating in acetone at 50° C.

## CC(=O)O[C@H]1C(=O)[C@@]2(C)[C@H]([C@H](OC(=O)c3ccccc3)[C@]3(O)C[C@H](OC(=O)[C@H](O)[C@@H](NC(=O)c4ccccc4)c4ccccc4)C(C)=C1C3(C)C)[C@]1(OC(C)=O)CO[C@@H]1C[C@@H]2O [paclitaxel]
  percentage of drug released from coating: 75%
